In US20060142308A1, “Synergistic combination comprising roflumilast and formoterol” (Atlanta Pharma AG, priority 2002, published 2006):

Tested on: ovalbumin (OVA)-sensitized and OVA-challenged Brown Norway rats
Experiment: Late inflammatory airway reaction in the ovalbumin-sensitized/-challenged Brown-Norway rat (BAL fluid eosinophils, total cells, protein)
Format: in vivo
Conditions: for Mean % Inhibition of Eosinophils: BAL fluid 48 h after OVA challenge; for Mean % Inhibition of Eosinophils / Mean % Inhibition of Protein: drug 1 h before challenge, p.o., Roflumilast 1.0, Formoterol 3.0, combination 1.0 + 3.0 μmol/kg; for Mean % Inhibition of Protein: cell-free BAL fluid 48 h after OVA challenge
Description: Late Inflammatory Airway Reaction in the Ovalbumin-Sensitized/-Challenged Brown-Norway Rat
Anti-inflammatory activity of Roflumilast and formoterol was determined in ovalbumin (OVA)-sensitized and OVA-challenged Brown Norway rats. Sensitization was done by simultaneous injection of Bordetella pertussis suspension i.p. and OVA/AHG suspension s.c. on day 1, 14 and 21. 28 days after start of sensitization, conscious Brown-Norway rats were challenged by inhalation of the aerosolized OVA solution for 1 h (˜20 ml/h). Non-challenged, only sensitized animals were used as baseline control. The drugs (thoroughly mixed with lactose) or the placebo control (lactose) were administered intratracheally (i.t.) as dry powders 1 h before OVA-challenge. 48 h later, OVA-challenged or non-challenged animals were anaesthetized and bronchoalveolar lavage (BAL) was performed using 3×4 ml BAL buffer per animal. The number of total cells and eosinophils in the BAL fluid, and the concentration of protein in the cell-free BAL fluid were determined. Drug-induced relative changes were calculated and statistically analyzed by the Jonckheere Terpstra test.

Structure (SMILES): COc1ccc(CC(C)NCC(O)c2ccc(O)c(NC=O)c2)cc1 (stereo not drawn) [Formoterol]
- effects on total cell and eosinophil influx into alveolar space and protein levels in BAL fluid (3 μmol/kg i.t., data failed to reach significance): exhibited inhibitory effects
- Mean % Inhibition of Eosinophils: 35%
- Mean % Inhibition of Protein: 46%

Structure (SMILES): O=C(Nc1c(Cl)cncc1Cl)c1ccc(OC(F)F)c(OCC2CC2)c1 [Roflumilast]
- effects on cell infiltration and protein accumulation (0.3 μmol/kg i.t.): did not show any significant effects
- Mean % Inhibition of Eosinophils: 0%
- Mean % Inhibition of Protein: 15%
